Laboratory results from the supplement of paper PMC13380429.

Columns and labels:
[1] = tested on: A549-ACE2 infected with SARS-CoV-2; test: cell count relative to DMSO; higher = less toxic; details: 24 h
Caco-2 [2] = test: cell viability relative to DMSO; higher = less toxic; details: 72 h
Calu-3 [3] = test: as above; details: 72 h
HepG2 [4] = test: as above; details: 72 h
U2OS [5] = test: as above; details: 72 h
Vero E6 [6] = test: as above; details: 72 h
[7] = tested on: A549-ACE2 infected with SARS-CoV-2; test: SARS-CoV-2 infection rate relative to DMSO; higher = more infection; details: 24 h
A549-ACE2 [8] = test: phospholipidosis EC50; higher = less potent phospholipidosis inducer
A549-ACE2 [9] = test: drug-induced phospholipidosis relative to tamoxifen; higher = more phospholipidosis
[10] = tested on: A549-ACE2 infected with SARS-CoV-2; test: morphology score (similarity to uninfected cells); higher = more like uninfected cells; details: 24 h
Caco-2 [11] = test: relative viability EC50 (midpoint between 100% and the lowest measured viability); higher = less toxic; details: 72 h
Calu-3 [12] = test: as above; details: 72 h
HepG2 [13] = test: as above; details: 72 h
U2OS [14] = test: as above; details: 72 h
Vero E6 [15] = test: as above; details: 72 h
Caco-2 [16] = test: drug sensitivity score (DSS) for viability; higher = more toxic; extreme values may be limits of the assay; details: 72 h
Calu-3 [17] = test: as above; details: 72 h
HepG2 [18] = test: as above; details: 72 h
U2OS [19] = test: as above; details: 72 h
Vero E6 [20] = test: as above; details: 72 h

O=C(NCCN1CCC2(CC1)C(=O)NCN2c1cccc(F)c1)c1ccc(F)c(F)c1 [ML298]
cell count ([1]; 0.3 µM): 102% | cell count ([1]; 3 µM): 102% | cell count ([1]; 10 µM): 116% | cell count ([1]; 30 µM): 95% | cell viability (Caco-2 [2]; 1 nM): 98% | cell viability (Caco-2 [2]; 10 nM): 99.7% | cell viability (Caco-2 [2]; 100 nM): 95.2% | cell viability (Caco-2 [2]; 1000 nM): 91.1% | cell viability (Caco-2 [2]; 10000 nM): 89.9% | cell viability (Calu-3 [3]; 1 nM): 96.7% | cell viability (Calu-3 [3]; 10 nM): 104% | cell viability (Calu-3 [3]; 100 nM): 101% | cell viability (Calu-3 [3]; 1000 nM): 93.9% | cell viability (Calu-3 [3]; 10000 nM): 89.1% | cell viability (HepG2 [4]; 1 nM): 97.3% | cell viability (HepG2 [4]; 10 nM): 103% | cell viability (HepG2 [4]; 100 nM): 101% | cell viability (HepG2 [4]; 1000 nM): 97.7% | cell viability (HepG2 [4]; 10000 nM): 89.1% | cell viability (U2OS [5]; 1 nM): 103% | cell viability (U2OS [5]; 10 nM): 102% | cell viability (U2OS [5]; 100 nM): 104% | cell viability (U2OS [5]; 1000 nM): 98.5% | cell viability (U2OS [5]; 10000 nM): 94.2% | cell viability (Vero E6 [6]; 1 nM): 101% | cell viability (Vero E6 [6]; 10 nM): 105% | cell viability (Vero E6 [6]; 100 nM): 102% | cell viability (Vero E6 [6]; 1000 nM): 107% | cell viability (Vero E6 [6]; 10000 nM): 89.8% | SARS-CoV-2 infection rate ([7]; 0.3 µM): 100% | SARS-CoV-2 infection rate ([7]; 3 µM): 83% | SARS-CoV-2 infection rate ([7]; 10 µM): 32% | SARS-CoV-2 infection rate ([7]; 30 µM): 25% | phospholipidosis EC50 (A549-ACE2 [8]; 24 h): 7.34 µM | phospholipidosis EC50 (A549-ACE2 [8]; 48 h): 9.19 µM | phospholipidosis EC50 (A549-ACE2 [8]; 72 h): 8.25 µM | drug-induced phospholipidosis (A549-ACE2 [9]; 0.3 µM, 24 h): 1.51% | drug-induced phospholipidosis (A549-ACE2 [9]; 0.3 µM, 48 h): 7.03% | drug-induced phospholipidosis (A549-ACE2 [9]; 0.3 µM, 72 h): 6.97% | drug-induced phospholipidosis (A549-ACE2 [9]; 0.833333 µM, 24 h): 2.03% | drug-induced phospholipidosis (A549-ACE2 [9]; 0.833333 µM, 48 h): 7.88% | drug-induced phospholipidosis (A549-ACE2 [9]; 0.833333 µM, 72 h): 7.75% | drug-induced phospholipidosis (A549-ACE2 [9]; 3.33333 µM, 24 h): 17.2% | drug-induced phospholipidosis (A549-ACE2 [9]; 3.33333 µM, 48 h): 17.8% | drug-induced phospholipidosis (A549-ACE2 [9]; 3.33333 µM, 72 h): 18.7% | drug-induced phospholipidosis (A549-ACE2 [9]; 6.66667 µM, 24 h): 46.9% | drug-induced phospholipidosis (A549-ACE2 [9]; 6.66667 µM, 48 h): 36.7% | drug-induced phospholipidosis (A549-ACE2 [9]; 6.66667 µM, 72 h): 39.7% | drug-induced phospholipidosis (A549-ACE2 [9]; 10 µM, 24 h): 89.3% | drug-induced phospholipidosis (A549-ACE2 [9]; 10 µM, 48 h): 79.7% | drug-induced phospholipidosis (A549-ACE2 [9]; 10 µM, 72 h): 90.5% | drug-induced phospholipidosis (A549-ACE2 [9]; 30 µM, 24 h): 113% | drug-induced phospholipidosis (A549-ACE2 [9]; 30 µM, 48 h): 127% | morphology score ([10]; 0.3 µM): -0.08 | morphology score ([10]; 3 µM): 0.43 | morphology score ([10]; 10 µM): 0.74 | morphology score ([10]; 30 µM): 0.22 | relative viability EC50 (Caco-2 [11]): > 10 µM | relative viability EC50 (Calu-3 [12]): > 10 µM | relative viability EC50 (HepG2 [13]): > 10 µM | relative viability EC50 (U2OS [14]): > 10 µM | relative viability EC50 (Vero E6 [15]): > 10 µM | drug sensitivity score (Caco-2 [16]): 0 | drug sensitivity score (Calu-3 [17]): 0.1 | drug sensitivity score (HepG2 [18]): 0 | drug sensitivity score (U2OS [19]): 0 | drug sensitivity score (Vero E6 [20]): 0

COc1cc2c(NC3CCN(C(C)C)CC3)nc(C3CCCCC3)nc2cc1OCCCN1CCCC1 [UNC0638]
cell count ([1]; 0.3 µM): 104% | cell count ([1]; 3 µM): 120% | cell count ([1]; 10 µM): 120% | cell count ([1]; 30 µM): 85% | cell viability (Caco-2 [2]; 1 nM): 99.2% | cell viability (Caco-2 [2]; 10 nM): 95.3% | cell viability (Caco-2 [2]; 100 nM): 98.5% | cell viability (Caco-2 [2]; 1000 nM): 96.7% | cell viability (Caco-2 [2]; 10000 nM): 90.3% | cell viability (Calu-3 [3]; 1 nM): 108% | cell viability (Calu-3 [3]; 10 nM): 106% | cell viability (Calu-3 [3]; 100 nM): 105% | cell viability (Calu-3 [3]; 1000 nM): 109% | cell viability (Calu-3 [3]; 10000 nM): 14.4% | cell viability (HepG2 [4]; 1 nM): 91.9% | cell viability (HepG2 [4]; 10 nM): 103% | cell viability (HepG2 [4]; 100 nM): 107% | cell viability (HepG2 [4]; 1000 nM): 114% | cell viability (HepG2 [4]; 10000 nM): 28.9% | cell viability (U2OS [5]; 1 nM): 103% | cell viability (U2OS [5]; 10 nM): 104% | cell viability (U2OS [5]; 100 nM): 99.7% | cell viability (U2OS [5]; 1000 nM): 98.5% | cell viability (U2OS [5]; 10000 nM): 79.5% | cell viability (Vero E6 [6]; 1 nM): 104% | cell viability (Vero E6 [6]; 10 nM): 106% | cell viability (Vero E6 [6]; 100 nM): 101% | cell viability (Vero E6 [6]; 1000 nM): 99.2% | cell viability (Vero E6 [6]; 10000 nM): 91.5% | SARS-CoV-2 infection rate ([7]; 0.3 µM): 92% | SARS-CoV-2 infection rate ([7]; 3 µM): 21% | SARS-CoV-2 infection rate ([7]; 10 µM): 13% | SARS-CoV-2 infection rate ([7]; 30 µM): 37% | phospholipidosis EC50 (A549-ACE2 [8]; 24 h): 0.85 µM | phospholipidosis EC50 (A549-ACE2 [8]; 48 h): 0.916 µM | phospholipidosis EC50 (A549-ACE2 [8]; 72 h): 2.15 µM | drug-induced phospholipidosis (A549-ACE2 [9]; 0.3 µM, 24 h): 19% | drug-induced phospholipidosis (A549-ACE2 [9]; 0.3 µM, 48 h): 20.5% | drug-induced phospholipidosis (A549-ACE2 [9]; 0.3 µM, 72 h): 16% | drug-induced phospholipidosis (A549-ACE2 [9]; 0.833333 µM, 24 h): 47.5% | drug-induced phospholipidosis (A549-ACE2 [9]; 0.833333 µM, 48 h): 48.8% | drug-induced phospholipidosis (A549-ACE2 [9]; 0.833333 µM, 72 h): 32% | drug-induced phospholipidosis (A549-ACE2 [9]; 3.33333 µM, 24 h): 80.5% | drug-induced phospholipidosis (A549-ACE2 [9]; 3.33333 µM, 48 h): 76.7% | drug-induced phospholipidosis (A549-ACE2 [9]; 3.33333 µM, 72 h): 73.7% | drug-induced phospholipidosis (A549-ACE2 [9]; 6.66667 µM, 24 h): 93.8% | drug-induced phospholipidosis (A549-ACE2 [9]; 6.66667 µM, 48 h): 97.3% | drug-induced phospholipidosis (A549-ACE2 [9]; 6.66667 µM, 72 h): 84.2% | drug-induced phospholipidosis (A549-ACE2 [9]; 10 µM, 24 h): 106% | drug-induced phospholipidosis (A549-ACE2 [9]; 10 µM, 48 h): 89.8% | drug-induced phospholipidosis (A549-ACE2 [9]; 10 µM, 72 h): 95.7% | drug-induced phospholipidosis (A549-ACE2 [9]; 30 µM, 24 h): 38.3% | morphology score ([10]; 0.3 µM): 0.28 | morphology score ([10]; 3 µM): 0.76 | morphology score ([10]; 10 µM): 0.07 | morphology score ([10]; 30 µM): -0.22 | relative viability EC50 (Caco-2 [11]): > 10 µM | relative viability EC50 (Calu-3 [12]): 3.67 µM | relative viability EC50 (HepG2 [13]): 3.92 µM | relative viability EC50 (U2OS [14]): > 10 µM | relative viability EC50 (Vero E6 [15]): > 10 µM | drug sensitivity score (Caco-2 [16]): 0 | drug sensitivity score (Calu-3 [17]): 4.1 | drug sensitivity score (HepG2 [18]): 3.1 | drug sensitivity score (U2OS [19]): 0.8 | drug sensitivity score (Vero E6 [20]): 0
